System: IGROV1 complex spheroids (HUVEC, MSC), viability % test/control
Assay: Anticancer human tumor IGROV1 cell line growth inhibition [GQUAD];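 further: spheroids exposed to compounds for 7 days before readout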;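 on viability, T/C: 100% = DMSO vehicle control viability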
Conditions: for IC50: curve of first compound; for viability, T/C: stronger effect = lower value
Summary of the method: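 Viability of tumor cells grown as complex spheroids with endothelial and stromal cells, exposed to drug combinations. Top concentration at or near clinical Cmax (else 10 microM), diluted in half-log increments.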

[1] = second compound 0.0316 µM, first compound 0.0316 µM
[2] = second compound 0.0316 µM, first compound 0.316 µM
[3] = second compound 0.1 µM, first compound 0.0316 µM
[4] = second compound 0.1 µM, first compound 0.316 µM
[5] = second compound 0.316 µM, first compound 0.0316 µM
[6] = second compound 0.316 µM, first compound 0.316 µM
[7] = second compound 1 µM, first compound 0.0316 µM
[8] = second compound 1 µM, first compound 0.316 µM
[9] = second compound 3.16 µM, first compound 0.0316 µM
[10] = second compound 3.16 µM, first compound 0.316 µM
[11] = second compound 10 µM, first compound 0.0316 µM
[12] = second compound 10 µM, first compound 0.316 µM
[13] = second compound 0.0316 µM, first compound 0.1 µM
[14] = second compound 0.0316 µM, first compound 1 µM
[15] = second compound 0.0316 µM, first compound 3.16 µM
[16] = second compound 0.0316 µM, first compound 10 µM
[17] = second compound 0.1 µM, first compound 0.1 µM
[18] = second compound 0.1 µM, first compound 1 µM
[19] = second compound 0.1 µM, first compound 3.16 µM
[20] = second compound 0.1 µM, first compound 10 µM
[21] = second compound 0.316 µM, first compound 0.1 µM
[22] = second compound 0.316 µM, first compound 1 µM
[23] = second compound 0.316 µM, first compound 3.16 µM
[24] = second compound 0.316 µM, first compound 10 µM
[25] = second compound 1 µM, first compound 0.1 µM
[26] = second compound 1 µM, first compound 1 µM
[27] = second compound 1 µM, first compound 3.16 µM
[28] = second compound 1 µM, first compound 10 µM
[29] = second compound 3.16 µM, first compound 0.1 µM
[30] = second compound 3.16 µM, first compound 1 µM
[31] = second compound 3.16 µM, first compound 3.16 µM
[32] = second compound 3.16 µM, first compound 10 µM
[33] = second compound 10 µM, first compound 0.1 µM
[34] = second compound 10 µM, first compound 1 µM
[35] = second compound 10 µM, first compound 3.16 µM
[36] = second compound 10 µM, first compound 10 µM

CC[C@@]1(O)C(=O)OCc2c1cc1n(c2=O)Cc2cc3c(CN(C)C)c(O)ccc3nc2-1 + Cc1cnc(CNC(=O)c2c(=O)c3ccc(N4CCCN(C)CC4)nc3n3c2sc2ccccc23)cn1
IC50 (second compound 0.0316 µM): 13.3 nM | IC50 (second compound 0.1 µM): < 0.999 nM | IC50 (second compound 0.316 µM): < 0.999 nM | IC50 (second compound 1 µM): < 0.999 nM | IC50 (second compound 3.16 µM): < 0.999 nM | IC50 (second compound 10 µM): < 0.999 nM | viability, T/C (second compound 0.0316 µM, first compound 0.000999 µM): 69.8% | viability, T/C (second compound 0.0316 µM, first compound 0.00316 µM): 57.8% | viability, T/C (second compound 0.0316 µM, first compound 0.00999 µM): 60.4% | viability, T/C [1]: 19.8% | viability, T/C (second compound 0.0316 µM, first compound 0.0999 µM): 12.4% | viability, T/C [2]: 8.43% | viability, T/C (second compound 0.1 µM, first compound 0.000999 µM): 33% | viability, T/C (second compound 0.1 µM, first compound 0.00316 µM): 34.3% | viability, T/C (second compound 0.1 µM, first compound 0.00999 µM): 31.3% | viability, T/C [3]: 15.8% | viability, T/C (second compound 0.1 µM, first compound 0.0999 µM): 12% | viability, T/C [4]: 9.62% | viability, T/C (second compound 0.316 µM, first compound 0.000999 µM): 24.3% | viability, T/C (second compound 0.316 µM, first compound 0.00316 µM): 29.3% | viability, T/C (second compound 0.316 µM, first compound 0.00999 µM): 18% | viability, T/C [5]: 12.4% | viability, T/C (second compound 0.316 µM, first compound 0.0999 µM): 11.9% | viability, T/C [6]: 8.87% | viability, T/C (second compound 1 µM, first compound 0.000999 µM): 21.8% | viability, T/C (second compound 1 µM, first compound 0.00316 µM): 18.1% | viability, T/C (second compound 1 µM, first compound 0.00999 µM): 12.3% | viability, T/C [7]: 11.1% | viability, T/C (second compound 1 µM, first compound 0.0999 µM): 13.1% | viability, T/C [8]: 9.29% | viability, T/C (second compound 3.16 µM, first compound 0.000999 µM): 10.1% | viability, T/C (second compound 3.16 µM, first compound 0.00316 µM): 8.55% | viability, T/C (second compound 3.16 µM, first compound 0.00999 µM): 9.85% | viability, T/C [9]: 8.98% | viability, T/C (second compound 3.16 µM, first compound 0.0999 µM): 10.3% | viability, T/C [10]: 8.29% | viability, T/C (second compound 10 µM, first compound 0.000999 µM): 11.6% | viability, T/C (second compound 10 µM, first compound 0.00316 µM): 9.45% | viability, T/C (second compound 10 µM, first compound 0.00999 µM): 11.2% | viability, T/C [11]: 8.53% | viability, T/C (second compound 10 µM, first compound 0.0999 µM): 10% | viability, T/C [12]: 9.32%

COc1ncnc(C2CC2)c1-c1ncc2cnn(Cc3ccc(-c4nc(C(F)(F)F)cn4C(C)C)cc3)c2n1 + CN(C)c1ccc(Nc2c3ccc(NC(=O)CCN4CCCC4)cc3nc3cc(NC(=O)CCN4CCCC4)ccc23)cc1
IC50 (second compound 0.0316 µM): > 10000 nM | IC50 (second compound 0.1 µM): > 10000 nM | IC50 (second compound 0.316 µM): > 10000 nM | IC50 (second compound 1 µM): > 10000 nM | IC50 (second compound 3.16 µM): > 10000 nM | IC50 (second compound 10 µM): 237 nM | viability, T/C [1]: 93.5% | viability, T/C [13]: 99% | viability, T/C [2]: 95.3% | viability, T/C [14]: 89.2% | viability, T/C [15]: 104% | viability, T/C [16]: 83.2% | viability, T/C [3]: 86.9% | viability, T/C [17]: 93% | viability, T/C [4]: 94.1% | viability, T/C [18]: 78.2% | viability, T/C [19]: 100% | viability, T/C [20]: 82.2% | viability, T/C [5]: 77.3% | viability, T/C [21]: 88.4% | viability, T/C [6]: 103% | viability, T/C [22]: 79.2% | viability, T/C [23]: 93.2% | viability, T/C [24]: 82.2% | viability, T/C [7]: 66.5% | viability, T/C [25]: 89.1% | viability, T/C [8]: 98.7% | viability, T/C [26]: 74% | viability, T/C [27]: 83.4% | viability, T/C [28]: 80.9% | viability, T/C [9]: 52.1% | viability, T/C [29]: 69.2% | viability, T/C [10]: 75.3% | viability, T/C [30]: 88.8% | viability, T/C [31]: 75% | viability, T/C [32]: 62.5% | viability, T/C [11]: 50% | viability, T/C [33]: 53% | viability, T/C [12]: 51.5% | viability, T/C [34]: 41.6% | viability, T/C [35]: 37.7% | viability, T/C [36]: 9.91%

CC1COCCN1c1cc(C2(O)CC3CCC(C2)O3)c2cnn(-c3ccn[nH]3)c2n1 (stereo not drawn) + CN(C)c1ccc(Nc2c3ccc(NC(=O)CCN4CCCC4)cc3nc3cc(NC(=O)CCN4CCCC4)ccc23)cc1
IC50 (second compound 0.0316 µM): 36.8 nM | IC50 (second compound 0.1 µM): < 31.6 nM | IC50 (second compound 0.316 µM): < 31.6 nM | IC50 (second compound 1 µM): < 31.6 nM | IC50 (second compound 3.16 µM): < 31.6 nM | IC50 (second compound 10 µM): < 31.6 nM | viability, T/C [1]: 54.8% | viability, T/C [13]: 20% | viability, T/C [2]: 7.64% | viability, T/C [14]: 5.68% | viability, T/C [15]: 2.88% | viability, T/C [16]: 1.63% | viability, T/C [3]: 45% | viability, T/C [17]: 22.7% | viability, T/C [4]: 9.08% | viability, T/C [18]: 5.11% | viability, T/C [19]: 3.48% | viability, T/C [20]: 1.19% | viability, T/C [5]: 45.8% | viability, T/C [21]: 19% | viability, T/C [6]: 9.25% | viability, T/C [22]: 4.51% | viability, T/C [23]: 4.65% | viability, T/C [24]: 1.93% | viability, T/C [7]: 42.6% | viability, T/C [25]: 17.5% | viability, T/C [8]: 8.86% | viability, T/C [26]: 5.16% | viability, T/C [27]: 4.18% | viability, T/C [28]: 1.58% | viability, T/C [9]: 38.7% | viability, T/C [29]: 13.4% | viability, T/C [10]: 8.17% | viability, T/C [30]: 4.73% | viability, T/C [31]: 4% | viability, T/C [32]: 1.78% | viability, T/C [11]: 17% | viability, T/C [33]: 10.2% | viability, T/C [12]: 5.93% | viability, T/C [34]: 4.42% | viability, T/C [35]: 3.55% | viability, T/C [36]: 1.05%

O=C(NO)c1cnc(N2CCN(S(=O)(=O)c3ccc4ccccc4c3)CC2)nc1 + Cc1[nH]c2ccc(F)cc2c1-c1nc2c3cccnc3c3ncccc3c2[nH]1
IC50 (second compound 0.0316 µM): 98.9 nM | IC50 (second compound 0.1 µM): 96.2 nM | IC50 (second compound 0.316 µM): 81.9 nM | IC50 (second compound 1 µM): < 31.6 nM | IC50 (second compound 3.16 µM): < 31.6 nM | IC50 (second compound 10 µM): < 31.6 nM | viability, T/C [1]: 87.3% | viability, T/C [13]: 49.5% | viability, T/C [2]: 12.1% | viability, T/C [14]: 0.35% | viability, T/C [15]: 0.04% | viability, T/C [16]: 0.07% | viability, T/C [3]: 91.5% | viability, T/C [17]: 47.7% | viability, T/C [4]: 20.1% | viability, T/C [18]: 0.3% | viability, T/C [19]: 0.05% | viability, T/C [20]: 0.06% | viability, T/C [5]: 91.3% | viability, T/C [21]: 40.6% | viability, T/C [6]: 17.2% | viability, T/C [22]: 0.3% | viability, T/C [23]: 0.04% | viability, T/C [24]: 0.05% | viability, T/C [7]: 2.48% | viability, T/C [25]: 1.93% | viability, T/C [8]: 2.47% | viability, T/C [26]: 0.07% | viability, T/C [27]: 0.03% | viability, T/C [28]: 0.05% | viability, T/C [9]: 1.55% | viability, T/C [29]: 1.3% | viability, T/C [10]: 0.5% | viability, T/C [30]: 0.04% | viability, T/C [31]: 0.05% | viability, T/C [32]: 0.07% | viability, T/C [11]: 1.75% | viability, T/C [33]: 1.33% | viability, T/C [12]: 0.92% | viability, T/C [34]: 0.07% | viability, T/C [35]: 0.11% | viability, T/C [36]: 0.1%
